Measured values reported in patent US20080288176A1 (priority 2005, published 2008).

Key:
[1] = Stability in gastric environment (gastric decay rate); type: in vitro ADME
Excerpt: (§1) The physiologically based pharmacokinetic/pharmacodynamic model of the present invention contains a series of compartments that describe the time course of a nonsteroidal anti-inflammatory prodrug, its active metabolites and nitric oxide release in intestine, liver, kidneys, blood/plasma and heart after prodrug administration. The time course of the prodrug, its active metabolites and nitric oxide release can be simulated using a series of in vitro and in silico inputs. The stability of each component in the gastrointestinal lumen is estimated using data collected from artificial gastric and intestinal juice. Intestinal metabolism is estimated using intestinal microsomes and absorption rate is estimated using permeability data collected from a cell monolayer such as Caco-2. Hepatic elimination is estimated using liver microsomes and stability in plasma is calculated using degradation of each component in the media. Plasma protein binding can either be measured using a standardized in vitro method or it can be estimated using an in silico method. The distribution of each component in various parts of the body is estimated using an in silico method. The rate of nitric oxide release is estimated using an in vitro endothelial cell model. The time course of prodrug, its active metabolites and nitric oxide can be simulated in human and animal using this physiologically based pharmacokinetic/pharmacodynamic model provided that the corresponding in vitro and in silico data are used as inputs.
(§2) Representative in vitro tests or in silico estimates include: (a) pKa estimation or measurement; (b) Log P measurement or in silico estimation; (c) Solubility in various physiological fluids; (d) Permeability. Caco-2 and/or NOVOKIN's proprietary animal and human cell lines can be used to obtain this parameter; (e) Metabolic rate in the intestine and liver. Human or animal intestinal microsomes, S9 fraction, and cytosol can be used for this purpose. Human or animal hepatocytes, liver microsomes, S9 fraction, and cytosol can also be used; (f) Hydrolysis in human or animal plasma; (g) Serum or plasma protein binding. It can be measured in vitro or estimated in silico; (h) The rate of NO release; (i) Existing pharmacokinetic and pharmacodynamic data of NSAID or a biocompatible agent; (j) Existing NO release rate of known diazeniumdiolate if applicable; (k) Stability in gastric and intestinal environment; and (l) In silico volume of distribution estimation.

male Wistar rats [2] = experiment: Urine N-acetylglucosaminidase to creatinine ratio (distal tubule toxicity); type: in vivo, rat; conditions: oral gavage, urine collected for 6 hours
Protocol: (§3) Table 1 is a summary of the protocol for a study which was conducted in male Wistar rats weighing 275-300 grams. The animals were allowed to acclimatize for at least five days prior to the commencement of the study. The study protocol was approved by the local animal ethics committee.
All test animals, housed in metabolic cages, had urine collected over wet ice for 6 hours after dosing. Aliquots of the urine from each animal were collected to determine creatinine concentration. The remainder of the urine was centrifuged at 1000 g for 10 minutes. The supernatant was collected and mixed with analytical grade ethylene glycol at a rate of 0.4 mL ethylene glycol per 1 mL urine supernatant. The ethylene glycol/urine mixture was stored at −80° C. until analysis.

[3] = Hydrolysis in human intestinal microsomes; type: in vitro ADME; conditions: for intestinal microsomal activity: model input
Excerpt: as §1
The selection of in vitro tests is designed to provide parameters for the above mentioned model. The use of an inappropriate test would result in wrong predictions. For example, Knaus et al. (2005) used guinea pig serum and porcine esterases to hydrolyze their O^2-substituted diazeniumdiolate derivatives of ASPIRIN, as disclosed in U.S. Ser. No. 60/681,842. These tests provided very little information in terms of in vivo human NO-NSAID metabolism rate and the extent to which metabolic conversion to NO donor and NSAID occurred. […] The half-life values were less than one minute. Based on these observations, it has become apparent that prior to entering the systemic circulation, it is likely that the NO-NSAID would have been hydrolyzed in the enterocytes and little or no NO-NSAID would have been detected in the blood stream. Furthermore, the release of NO will commence immediately once the NO donor is detached from the NSAID.
as §2
(§4) Whenever in vitro estimate is attainable, the in vitro results will be used, for example, plasma protein binding. Methods reported by Bowalgaha & Miners (2001), Martignoni et al. (2006), Tong et al. (2001) and Thulesen et al. (1999) were used for in vitro and in vivo scale-up for clearance in the intestine, absorption rate constant and hepatic clearance. The simulation begins with no material in all compartments except for the initial bolus in one compartment (typically the stomach compartment). The simulation then estimates the changing distribution of the material with time.

male Wistar rats [4] = experiment: Gastric ulcer index after oral dosing; type: in vivo, rat; conditions: for Ulcer Indices, Mean: oral gavage, naproxen 250 mg/kg or molar equivalent (ROF 250 mg/kg), 6 h after dosing, mean aggregate gastric ulcer length; for Ulcerogenicity (in words): oral, 6 h
Protocol: as §3
The animals were fasted overnight prior to test substance administration. The test substance was administered orally by gavage on the morning of the study day. All test animals had blood collected during the test period in both EDTA (ethylenediaminetetraacetic acid) tubes and SST (Serum Separator Tubes) at 1, 3 and 6 hours after dosing. Blood was collected into EDTA tubes only at 1 and 3 hours by tail tip amputation. Volume of blood collected was between 0.5 and 1 mL at each of these collections. The final collection was by puncture of the abdominal vena cava under isoflurane general anesthesia. Final blood collection was targeted as follows: 1st EDTA #1—1.5 mL; 2nd SST—1.5 mL; 3rd EDTA #2—as much as possible.
Each animal from all groups underwent a full necropsy under the supervision of a board certified veterinary pathologist. The stomach of each rat was cut along the greater curvature, contents removed into a polypropylene (Falcon) tube, the mucosa rinsed with saline and any obvious ulcers or erosions were measured along the longest axis. This measurement was recorded for each ulcer or erosion observed in each stomach. The falcon tubes and their contents were frozen at −80° C. and shipped to Novokin on dry ice for analysis.
The aggregate length of all gastric ulcers found in a given animal was calculated. The mean aggregate ulcer length across animals in a group was calculated. This mean value was reported as the ulcer index for that group.
The ulcer index of each modified drug was compared with the ulcer index of its associated parent drug and the controls using analysis of variance and Duncan's multiple range test for pairwise comparisons. Statistical analysis was done using SAS® (SAS Institute Inc., Cary, N.C.).

[5] = Stability in intestinal lumen (decay rate); type: in vitro ADME
Excerpt: as §1, §2

Hydrolysis in rat plasma = type: in vitro ADME; conditions: Rat
Excerpt: as §1, §2

[6] = Hydrolysis in rat liver microsomes; type: in vitro ADME; conditions: for liver microsomal activity: model input
Excerpt: as §1, §2, §4

Q: Which results are given for `COc1ccc2cc(C(C)C(=O)OCON=[N+]([O-])N3CCCC3)ccc2c1` (stereo not shown) [PYRO-NO-NAP, pyrrolidino-diazeniumdiolate-naproxen]?
A: gastric decay rate constant ([1]; Human): 0 /mint; gastric decay rate constant ([1]; Rat): 0 /mint; Urine NAG/Cr values, Mean (male Wistar rats [2]): 21.515; intestinal molar percent conversion to Naproxen [3]: 87%; intestinal microsomal activity [3]: 188 mL/min/organ; Ulcer Indices, Mean (male Wistar rats [4]): 1.450; Ulcerogenicity (in words) (male Wistar rats [4]): not significantly different from vehicle; intestinal lumen decay rate constant ([5]; Human): 0.025 min⁻¹; intestinal lumen decay rate constant ([5]; Rat): 0.025 min⁻¹; plasma decay rate constant (Hydrolysis in rat plasma): 1.4 min⁻¹; liver molar percent conversion to Naproxen [6]: 40%; liver microsomal activity [6]: 1920 mL/min/organ

Q: Which “gastric decay rate constant” value ([1]; Human) does the source give for `COc1ccc2cc([C@H](C)C(=O)OCCCCO[N+](=O)[O-])ccc2c1` [AZD 3582] here?
A: 0 /mint

Q: What about the “gastric decay rate constant” value ([1]; Rat) of the same compound?
A: 0 /mint

Q: And the “Urine NAG/Cr values, Mean” value (male Wistar rats [2])?
A: 27.439

Q: What about the intestinal microsomal activity [3] of the same compound?
A: 554 mL/min/organ

Q: And the “Ulcer Indices, Mean” value (male Wistar rats [4])?
A: 3.444

Q: What about the “Ulcerogenicity (in words)” value (male Wistar rats [4]) of the same compound?
A: severely ulcerogenic

Q: And the “intestinal lumen decay rate constant” value ([5]; Human)?
A: 0 min⁻¹

Q: And the “intestinal lumen decay rate constant” value ([5]; Rat)?
A: 0 min⁻¹

Q: What about the “plasma decay rate constant” value (Hydrolysis in rat plasma) of the same compound?
A: 1.0 min⁻¹

Q: What about the liver microsomal activity [6] of the same compound?
A: 1029 mL/min/organ
